Measured values from US6749863B1, “Targeted liposome gene delivery” (Georgetown University, priority 1997, dated 2004).

Assays:
MDA-MB-231 = experiment: Chemosensitization, XTT cell proliferation assay; assay type: cell-based; conditions: Homo sapiens; drug alone on untransfected MDA-MB-231 cells
Description: (§1) This example summarizes part of the in vitro p53-mediated chemosensitization experiments (XTT assays) performed on the cell lines for which transfection with transferrin-coupled or folate-coupled liposomes is described in Example 17. […] The chemosensitization effect is dependent upon the liposome used and the p53 DNA dose. VIN=vinblastine; DXR=doxorubicin; CDDP=cisplatin. Fold Sensitization is calculated from the individual IC50 values. DNA dose=ug of DNA applied per well (approximately 1×10^4 cells/well in a 96-well plate).

U87 = experiment: Chemosensitization, XTT cell proliferation assay; assay type: cell-based; conditions: Homo sapiens, U-87 MG, drug alone on untransfected U87 cells
Description: as §1
(§2) The ability of the LipF(B)-delivered AS-HER-2 to sensitize MDA-MB-435, JSQ-3, DU145 and U87 (Human glioblastoma) cells to chemotherapeutic agents was evaluated. Sensitivity was determined using the XTT cell proliferation assay. […] Comparison of the cells treated with LipF(B) mediated AS-HER-2, to that of cells treated with a LipF(B) control oligonucleotide (SC) indicated a greater than 30 fold increase in sensitization of 435 cells to taxotere. In contrast, only a 2.5 fold level of sensitization was evident after transfection with AS-HER-2 using the commercial Lipofectin (Life Technologies, Inc.). Treatment of JSQ-3 cells with LipF(E)-AS-HER-2 increased the effect of docetaxel almost 25 fold. […] A two fold increase in sensitization of DU145 cells to docetaxel was seen after treatment with LipF(E)-AS-HER-2.

PANC-1 = experiment: Chemosensitization, XTT cell proliferation assay; assay type: cell-based; conditions: Homo sapiens, PANC-1, drug alone on untransfected PANC-1 cells
Description: as §1
Here also a greater than 70 fold increase in drug sensitivity was induced by treatment with LipF(B)-AS-RAS.

PANC-1 xenograft tumors = experiment: Systemic LipF-p53 plus chemotherapy, xenograft growth; assay type: in vivo, athymic nude mice; conditions: single agent only
Text: Xenograft tumors of pancreatic cancer cell line PANC-1 were induced by the subcutaneous inoculation of greater than 1×10^7 cells onto athymic nude mice. When the tumors reached approximately 500-1000 mm^3, the tumors were excised and minced into small (<1 mm) pieces. These freshly prepared tumor pieces (suspended in PBS) were inoculated subcutaneously (using a 14 g needle) onto the flanks of athymic nude mice. When the tumors reached an average of 100 mm^3 in volume, treatment was begun. The animals received, via intravenous injection, LipF(B)-p53. This liposome complex was administered twice/week to a total of 7 injections. The chemotherapeutic agent gemcitabine was also administered intraperitoneally at a dose of either 60mg/kg or 120mg/kg twice weekly. A total of 13 gemcitabine injections were administered. One group of animals also received twice weekly intratumoral injections of LipF(B)-p53 (a total 6) in addition to the intravenous administration of the LipF(B)-p53 and gemcitabine. […] This was particularly evident in the group that received both i.v. and i.t injections.

JSQ-3 = experiment: Chemosensitization, XTT cell proliferation assay; assay type: cell-based; conditions: Homo sapiens, drug alone on untransfected JSQ-3 cells
Description: In addition to radiation, chemotherapy is becoming more commonly used in the treatment of SCCHN. As lack of functional wtp53 has been associated with failure to respond to chemotherapy, in this example we examined the effect of ligand-facilitated liposome mediated wtp53 gene therapy on sensitization of SCCHN cell line JSQ-3 to chemotherapeutic agents. 1×10^4 cells were plated/well of a 96-well plate. 24 hours later, the cells were transfected with LipT(A)-p53. Two days after transfection, anti-neoplastic agents were added at increasing concentrations (in triplicate). 4-6 days later the XTT cell proliferation assay was performed and IC50 values, the drug concentration yielding 50% growth inhibition, calculated.
as §1, with “DNA dose=ug of DNA applied per well (approximately 1×10^4 cells/well in a 96-well plate).” left out
The ability of the LipF(B)-delivered AS-HER-2 to sensitize MDA-MB-435, JSQ-3, DU145 and U87 (Human glioblastoma) cells to chemotherapeutic agents was evaluated. Sensitivity was determined using the XTT cell proliferation assay. […]

DU145 = experiment: Chemosensitization, XTT cell proliferation assay; assay type: cell-based; conditions: Homo sapiens, DU-145, drug alone on untransfected DU145 cells
Description: as §1, §2

[1] = system: MDA-MB-435 mammary fat pad xenograft tumors; experiment: Chemosensitization of xenograft tumors in vivo; parameters: species or system athymic nude mice; conditions: AS-HER-2 only or docetaxel only
Description: Mice bearing subcutaneous mammary fat pad MDA-MB-435 tumors of approximately 100 mm^3 were i.v. injected via the tail vein with LipF(C)-p53 every 3-4 days for a total of eight injections. Doxorubicin (Dxr) (10 mg/kg) was injected i.v. weekly for 4 weeks. […] In a second experiment, two separate liposome compositions [LipF(E) and LipF(C)] were employed.
The ability of the LipF(B)-AS-HER-2 to target and sensitize preexisting MDA-MB-435 xenograft tumors to the chemotherapeutic agent docetaxel in vivo was examined by assessing tumor regression as well as tumor growth inhibition. Female athymic (Ncr nu/nu) mice carrying MDA-MB-435 mammary fat pad xenograft tumors of approximately 70 mm^3 were intravenously injected, via the tail vein, with LipF(B)-AS-HER-2 (at approximately 0.6 mM of oligonucleotides) every other day to a total of 11 injections. A total of 11 intravenous doses of docetaxel (approximately 20 mg/kg/dose every other day) were also administered to the animals. […] Therefore, the systemically delivered, targeted liposome delivery of antisense oligonucleotides, in this case AS-HER-2, was clearly able to sensitize these tumors to the chemotherapeutic agent, strongly inhibiting tumor growth almost three weeks after the end of treatment.

DU145 xenograft tumors = experiment: Systemic LipF-p53 plus chemotherapy, xenograft growth; assay type: in vivo, mice; conditions: complex twice/week, 5 injections, or docetaxel 10 mg/kg, alone
Description: Mice bearing subcutaneous DU145 xenograft tumors of approximately 100 mm^3 were injected, via the tail vein, with a ligand-liposome p53 complex using folate as the targeting ligand (LipF(B)-p53). This liposome complex was administered twice/week (to a total of 5 injections) along with the chemotherapeutic agent docetaxel at a dose of 10 mg/kg.

| SMILES | IC50 (MDA-MB-231) [µM] | IC50 (PANC-1) [µM] | IC50 (DU145) [µM] | other results |
| --- | --- | --- | --- | --- |
| COc1cccc2c1C(=O)c1c(O)c3c(c(O)c1C2=O)C[C@@](O)(C(=O)CO)C[C@@H]3O[C@H]1C[C@H](N)[C@H](O)[C@H](C)O1 [DXR, doxorubicin] | 0.27 |  |  |  |
| Nc1ccn([C@@H]2O[C@H](CO)[C@@H](O)C2(F)F)c(=O)n1 [Gemzar, gemcitabine] |  | 0.8 |  | IC50 (U87): 1.28 µM; Outcome of control groups (single treatments) (PANC-1 xenograft tumors): euthanized due to tumor burden by day 54 |
| CC(=O)O[C@H]1C(=O)[C@@]2(C)[C@H]([C@H](OC(=O)c3ccccc3)[C@]3(O)C[C@H](OC(=O)[C@H](O)[C@@H](NC(=O)c4ccccc4)c4ccccc4)C(C)=C1C3(C)C)[C@]1(OC(C)=O)CO[C@@H]1C[C@@H]2O [Taxol] | 0.052 |  | 0.0132 | IC50 (JSQ-3): 0.0158 µM |
| CC(=O)O[C@@]12CO[C@@H]1C[C@H](O)[C@@]1(C)C(=O)[C@H](O)C3=C(C)[C@@H](OC(=O)[C@H](O)[C@@H](NC(=O)OC(C)(C)C)c4ccccc4)C[C@@](O)([C@@H](OC(=O)c4ccccc4)[C@H]21)C3(C)C [Taxotere, docetaxel] |  | 0.0115 | 0.042 | Tumor growth, single treatment [1]: some docetaxel effect; Tumor growth, single treatment (DU145 xenograft tumors): neither the LipF(B)-p53 complex alone, nor docetaxel alone had any substantial effect on tumor growth |
| CC[C@]1(O)C[C@@H]2CN(CCc3c([nH]c4ccccc34)[C@@](C(=O)OC)(c3cc4c(cc3OC)N(C)[C@H]3[C@@](O)(C(=O)OC)[C@H](OC(C)=O)[C@]5(CC)C=CCN6CC[C@]43[C@@H]65)C2)C1 [Vln, vinblastine] | 0.00181 |  |  |  |
